Experimental data: patent publication US7589066B2, “Potent and specific immunoproteasome inhibitors” (The University of North Carolina at Chapel Hill, priority 2005, dated 2009)
Read-outs that look alike come from different tables or passages of the source. Square brackets hold non-standard residues; d marks the D form. Peptide text beside a SMILES is read from it. * marks the point of attachment. hPhe = N[CH](CCc1ccccc1)C(=O)O; Cbz = O=C(OCc1ccccc1)*

Experiments:
[1] = tested on: HPAC human pancreatic adenocarcinoma cells; test: Proteasome inhibitor-induced apoptosis, ELISA of apoptotic nuclear DNA fragmentation; type: cell-based; settings: 5 nM, 18 hours
Procedure: (§1) Cultured NCI-H929 human myeloma cells, IM-9 human B-lymphoblasts, HPAC human pancreatic adenocarcinoma cells, and Hs 294T human melanoma cells were exposed to vehicle, 5 nM bortezomib (PS-341), or 50 μM Cbz-LnL-CHO for 18 hours. Apoptosis was evaluated using an enzyme-linked immunosorbent assay that detects apoptotic nuclear DNA fragmentation. Cell death is expressed as the fold-increase in apoptosis over the vehicle control, which was arbitrarily set at 1.0. Referring now to FIG. 2, the effect of PS-341 is shown in the open bar graphs, while Cbz-LnL-CHO (IPSI-001) is in the stippled bar graphs. The mean and standard error of the mean are shown for each condition from four independent experiments.

[2] = tested on: Hs 294T human melanoma cells; test: as above; type: cell-based; settings: 5 nM, 18 hours
Procedure: as §1

[3] = tested on: IM-9 human B-lymphoblasts; test: as above; type: cell-based; settings: 18 hours
Procedure: as §1

[4] = tested on: NCI-H929 human myeloma cells; test: as above; type: cell-based; settings: 18 hours
Procedure: as §1

myeloma = settings: phase II study that led to FDA approval; cited from earlier work
[5] = target: T1, proteasome from spleen tissue (LMP-2/7/10 isoform, immunoproteasome), chymotrypsin-like (ChT-L) activity (UniProt Q3T112); test: Inhibition of ChT-L activity of spleen proteasome (immunoproteasome); type: biochemical
T1 construct: Ki (μM) Spleen Proteasome, ChT-L component; other: substrate Cbz-GGF-pAB, Dixon plots, without preincubation; other: substrate Cbz-GGF-pAB
T1 sequence (Q3T112 1-276): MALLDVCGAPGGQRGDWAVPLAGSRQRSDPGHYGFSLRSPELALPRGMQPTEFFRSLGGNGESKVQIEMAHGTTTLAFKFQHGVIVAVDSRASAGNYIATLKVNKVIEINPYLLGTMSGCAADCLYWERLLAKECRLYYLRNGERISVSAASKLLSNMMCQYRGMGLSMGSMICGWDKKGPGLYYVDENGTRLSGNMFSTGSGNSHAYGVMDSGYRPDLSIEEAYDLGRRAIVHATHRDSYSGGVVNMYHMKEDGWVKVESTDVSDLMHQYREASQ
Text: (§2) To investigate the possibility that inhibitors specific for the immunoproteasome could be identified, the proteasome from pituitary tissue, representative of the X/Y/Z isoform (i.e., the constitutive proteasome), and the proteasome from spleen tissue, representative of the LMP-2/7/10 isoform (i.e., the immunoproteasome), were each purified to homogeneity. A panel of peptidyl-aldehyde substrate-related inhibitors were then screened for their ability to inhibit the chymotrypsin-like (ChT-L) and branched chain amino acid preferring (BrAAP) activities of these two proteasome preparations. […] The same was true for Cbz-FL-CHO, the peptide aldehyde version of bortezomib.
(§3) Dixon plots were used to obtain Ki values. Determinations were carried out at three substrate concentrations and at six different inhibitor concentrations without preincubation of the enzyme with inhibitors. Substrate concentrations were 0.1 to 0.4 mM for the BrAAP activity of the spleen, and 0.5 to 4.0 mM for the ChT-L activity, and 1.0 to 4.0 mM for all others. The substrate for the BrAAP activity was Cbz-GPALG-pAB, and Cbz-GGF-pAB for the ChT-L activity. Data are averages±standard error, with the number of determinations shown in parentheses.
as §3, with “for the […] activity of” for “for the BrAAP activity of”, “in parentheses. † indicates IC50 instead of Ki. NI indicates no inhibition in the tested range.” for “in parentheses.”
as §3, with “parentheses. † indicates IC50 instead of Ki. NI indicates no inhibition in the tested range.” for “parentheses.”

[6] = target: T2, proteasome from pituitary tissue (X/Y/Z isoform, constitutive proteasome), chymotrypsin-like (ChT-L) activity (Bos taurus, UniProt Q32KL2); test: Inhibition of ChT-L activity of pituitary proteasome (constitutive proteasome); type: biochemical; settings: substrate Cbz-GGF-pAB; for IC50: read-out: IC50 instead of Ki (†), Pituitary Proteasome, ChT-L component; for Ki: Dixon plots, without preincubation, read-out: Ki (μM) Pituitary Proteasome, ChT-L component
T2 construct: the proteasome from pituitary tissue, representative of the X/Y/Z isoform; from tissue; host or cells: pituitary
Text: To investigate the possibility that inhibitors specific for the immunoproteasome could be identified, the proteasome from pituitary tissue, representative of the X/Y/Z isoform (i.e., the constitutive proteasome), and the proteasome from spleen tissue, representative of the LMP-2/7/10 isoform (i.e., the immunoproteasome), were each purified to homogeneity. A panel of peptidyl-aldehyde substrate-related inhibitors were then screened for their ability to inhibit the chymotrypsin-like (ChT-L) and branched chain amino acid preferring (BrAAP) activities of these two proteasome preparations.
as §3, with “Dixon plots were used to obtain Ki values.” left out
as §3, with “[…] Determinations were” for “Dixon plots were used to obtain Ki values. Determinations were”, “for the […] activity of” for “for the BrAAP activity of”, “in parentheses. † indicates IC50 instead of Ki. NI indicates no inhibition in the tested range.” for “in parentheses.”
as §3, with “Dixon plots were used to obtain Ki values.” left out, “parentheses. † indicates IC50 instead of Ki. NI indicates no inhibition in the tested range.” for “parentheses.”

[7] = tested on: proteasome from spleen tissue (LMP-2/7/10 isoform, immunoproteasome), chymotrypsin-like (ChT-L) activity; test: Inhibition of ChT-L activity of spleen proteasome (immunoproteasome); type: biochemical; settings: spleen versus pituitary proteasome, in vitro
Text: as §2, §3
as §3, with “for the […] activity of” for “for the BrAAP activity of”, “in parentheses. † indicates IC50 instead of Ki. NI indicates no inhibition in the tested range.” for “in parentheses.”
as §3, with “parentheses. † indicates IC50 instead of Ki. NI indicates no inhibition in the tested range.” for “parentheses.”

[8] = tested on: proteasome from spleen tissue (LMP-2/7/10 isoform, immunoproteasome), branched chain amino acid preferring (BrAAP) activity; test: Inhibition of BrAAP activity of spleen proteasome (immunoproteasome); type: biochemical; settings: spleen versus pituitary proteasome, in vitro
Text: as §2, §3
Dixon plots were used to obtain Ki values. […]

[9] = substrate Cbz-GGF-pAB, Dixon plots, without preincubation; read-out: Ki (μM) Spleen Proteasome, ChT-L component
[10] = read-out: Ki (μM) Spleen Proteasome, ChT-L component; substrate Cbz-GGF-pAB, Dixon plots, without preincubation

Ki [5, 9] [µM] | SMILES | IC50 [6] [µM] | Ki [6] [µM] | also measured
 | CC(C)C[C@H](NC(=O)[C@H](Cc1ccccc1)NC(=O)c1cnccn1)B(O)O [Bortezomib, reference compound] |  |  | induction of apoptosis (fold-increase over the vehicle control) [1]: induces apoptosis roughly equally in all of the cell lines tested; induction of apoptosis (fold-increase over the vehicle control) [2]: induces apoptosis roughly equally in all of the cell lines tested; induction of apoptosis (fold-increase over the vehicle control) ([3]; IM-9, 5 nM): induces apoptosis roughly equally in all of the cell lines tested; induction of apoptosis (fold-increase over the vehicle control) ([4]; NCI-H929, 5 nM): induces apoptosis roughly equally in all of the cell lines tested; patients with myeloma with partial responses or better (myeloma): 28%
 | CC(NC(=O)OCc1ccccc1)C(=O)NC(C=O)Cc1ccccc1 (stereo not drawn) [Cbz-AF-CHO, N-carbobenzyloxy-alanyl-phenylalanylal] | 380 |  | IC50 ([5]; substrate Cbz-GGF-pAB; read-out: IC50 instead of Ki (†), Spleen Proteasome, ChT-L component): 24 µM
4 ± 0.27 | O=CC(Cc1ccccc1)NC(=O)C(Cc1ccccc1)NC(=O)OCc1ccccc1 (stereo not drawn) [Cbz-FF-CHO, N-carbobenzyloxy-phenylalanyl-phenylalanylal] (Cbz-Phe-Phe-aldehyde; configuration not given here) |  | 56 ± 4.4 | 
2.1 ± 0.29 | CC(C)CC(C=O)NC(=O)C(Cc1ccccc1)NC(=O)OCc1ccccc1 (stereo not drawn) [Cbz-FL-CHO, reference compound] (Cbz-Phe-Leu-aldehyde; configuration not given here) |  | 5.55 ± 0.47 | 
 | O=CC(Cc1ccccc1)NC(=O)C(Cc1ccccc1)NC(=O)CNC(=O)OCc1ccccc1 (stereo not drawn) [Cbz-GFF-CHO, N-carbobenzyloxy-glycyl-phenylalanyl-phenylalanylal] (Cbz-Gly-Phe-Phe-aldehyde; configuration not given here) | 2.7 |  | IC50 ([5]; read-out: IC50 instead of Ki (†), Spleen Proteasome, ChT-L component; substrate Cbz-GGF-pAB): 1.03 µM
 | CC(NC(=O)C1CCCN1C(=O)CNC(=O)OCc1ccccc1)C(=O)NC(C=O)Cc1ccccc1 (stereo not drawn) [Cbz-GPAF-CHO, N-carbobenzyloxy-glycyl-prolyl-alanyl-phenylalanylal] (Cbz-GPAF-aldehyde; configuration not given here) |  | 460 ± 66 | Ki [5, 10]: 8.4 ± 0.52 µM
 | O=CC(Cc1ccccc1)NC(=O)C(Cc1ccccc1)NC(=O)C1CCCN1C(=O)CNC(=O)OCc1ccccc1 (stereo not drawn) [Cbz-GPFF-CHO, N-carbobenzyloxy-glycyl-prolyl-phenylalanyl-phenylalanylal] (Cbz-GPFF-aldehyde; configuration not given here) |  | 58 ± 1.8 | Ki [5, 10]: 5.6 ± 1.1 µM
1.45 ± 1.05 | CC(C)CC(C=O)NC(=O)C(C)NC(=O)C(CC(C)C)NC(=O)OCc1ccccc1 (stereo not drawn) [Cbz-LAL-CHO, reference compound] (Cbz-Leu-Ala-Leu-aldehyde; configuration not given here) |  | 0.82 ± 0.15 | 
5.6 ± 0.2 | CC(C)CC(NC(=O)OCc1ccccc1)C(=O)NC(C=O)Cc1ccccc1 (stereo not drawn) [Cbz-LF-CHO, N-carbobenzyloxy-leucyl-phenylalanylal] (Cbz-Leu-Phe-aldehyde; configuration not given here) | 154 |  | 
 | CC(C)CC(NC(=O)OCc1ccccc1)C(=O)NC(CC(C)C)C(=O)NC(C=O)Cc1ccccc1 (stereo not drawn) [Cbz-LLF-CHO, N-carbobenzyloxy-leucyl-leucyl-phenylalanylal] (Cbz-Leu-Leu-Phe-aldehyde; configuration not given here) |  | 1.6 ± 0.5 | Ki [5, 10]: 5.97 ± 1.4 µM
5.1 ± 0.9 | CC(C)C[C@@H](C=O)NC(=O)[C@H](CC(C)C)NC(=O)[C@H](CC(C)C)NC(=O)OCc1ccccc1 [Cbz-LLL-CHO, reference compound] (Cbz-Leu-Leu-Leu-aldehyde) |  | 6.9 ± 0.84 | 
2.74 ± 0.33 | O=CC(Cc1ccccc1)NC(=O)C(CCc1ccccc1)NC(=O)OCc1ccccc1 (stereo not drawn) [Cbz-hFF-CHO, N-carbobenzyloxy-homophenylalanyl-phenylalanylal] (Cbz-[hPhe]-Phe-aldehyde; configuration not given here) | 40 |  | 

SMILES | Ki [5, 9] [µM] | IC50 [6] [µM] | Ki [6] [µM] | also measured
CCCCC(C=O)NC(=O)C(CC(C)C)NC(=O)OCc1ccccc1 (stereo not drawn) [Cbz-LnL-CHO, N-carbobenzyloxy-leucyl-norleucinal] | 1.03 ± 0.17 |  | 105 ± 1.3 | preference for the LMP-containing ChT-L proteasome activity [7]: greater than 100 fold; preference for the LMP-containing BrAAP proteasome activity [8]: greater than 160 fold; induction of apoptosis (fold-increase over the vehicle control) ([3]; IM-9, 50 μM): induces significant apoptosis; induction of apoptosis (fold-increase over the vehicle control) ([4]; NCI-H929, 50 μM): induces significant apoptosis
